Laboratory results taken from patent US20120294808A1, “Fluorescent Analogs of Neurotransmitters, Compositions Containing the Same and Methods of Using the Same” (UNIVERSITY OF MIAMI, priority 2009, published 2012).
Where “and” joins values, the source holds several entries; their conditions need not be identical. Equal entries are not always repeated. Entries after “also recorded” stand apart in the source; their conditions may differ. Blank lines part the entries; values can stand above or below the compound they belong to.

How the values were obtained:
[1] = system: Neurons and astroglia isolated from E14 chick brainstems; assay: Live confocal imaging of cultured cells exposed to probe (405 nm excitation); type: cell-based
Protocol: In other words, whether the probe localized to the cell membrane, implying binding to transporters or receptors, or whether the probe was internalized, implying active transport into the cytosol. Neurons and astroglia isolated from E14 chick brainstems were grown on poly-L-lysine and laminin treated coverslips affixed to 35 mm culture dishes enabling live imaging of the cells in culture media. […] Cells were exposed to the probe solution for one minute, the media was then changed and additional images were captured. […] During the course of the imaging experiments, some photobleaching was observed.

[2] = system: Mixed cell cultures of neurons and astroglia isolated from the brain stems of E14 chick embryos; assay: Microwell plate reader cellular uptake assay, with and without clomipramine (SRI) pretreatment; type: cell-based; conditions: for effect of Clomipramine pretreatment on uptake: pre-treatment with Clomipramine, a serotonin reuptake inhibitor; for emission response (cellular uptake): λex=355 nm, λem=444 nm, versus controls A and B
Excerpt: Mixed cell cultures of neurons and astroglia isolated from the brain stems of E14 chick embryos were exposed to solutions of 1-4. Serotonergic cells are clustered in the raphe nucleus (RN) located along the midline of the brain stem; they project into other regions of the brain including the hypothalamus, the olfactory bulb, cortex and cerebellum. […] The inherent fluorescence of the carbostyril core enabled direct detection of their cellular uptake utilizing a microwell plate reader (λex=355 nm, λem=444 nm).
It was believed that several modes of interaction are possible between the fluorescent probes and the cultured cells including specific interactions such as active transport via neurotransmitter transporters, or binding to neurotransmitter receptors, as well as non-specific interactions such as insertion into the cell membrane.

[3] = Optical properties (absorption and emission spectra) of carbostyril probes 1-4; type: physicochemical; conditions: for small additional emission peak: acidic solutions, protonated form
Excerpt: The optical properties of 1-4 were investigated in order to determine their suitability as fluorescent probes. Absorption spectra were obtained in neutral, acidic and basic solutions. […] Addition of acetic acid effected a hypsochromic shift (λmax=335 nm); the addition of triethylamine results in pronounced bathchromic (λmax=370 nm) and hyperchromic shifts. The linear combination of the absorption spectra with excess acid and excess base nearly perfectly overlaps with the spectrum obtained at pH 7.2 (FIG. 1). Therefore, it was determined that at near neutral pH (between approximately 6.5-7.5pH), both protonated and unprotonated species exist at roughly equal concentrations.
Thus, it was determined that in neutral and basic solutions, 1-4 emit from a deprotonated excited state species. Emission in acidic solutions is dominated by the deprotonated species as well. In the case of 3 and 4 a small peak at 380 nm was observed, which is likely due to photoemission from the protonated form of these molecules. While 5HT itself is fluorescent, single photon excitation of 5HT requires specialized optics and a UV excitation source (λmax,abs=277 nm). Furthermore, the autofluorescence of biological samples is also quite high in the UV region. The longer wavelength absorption of 1-4 allows selective photoexcitation of these fluorophores in the presence of aromatic amino acid residues and nucleobases.

[4] = Solubility of probes 1-4 in methanol and PBS; type: physicochemical; conditions: phosphate-buffered saline (PBS), aqueous buffer; read-out: concentration at which soluble in PBS
Excerpt: The synthesis of analogs 2-4 followed a similar route: reaction of 5 with chloroethylamine followed by deprotection of the 6-hydroxy group produced 2; 3 and 4 resulted from reaction of 5 with bromoethanol and bromopropylbenzene respectively. In all cases the N-linked isomer was isolated.

[5] = system: dissociated e19 chick brain cells; assay: Example 4 uptake in brain cells (microwell plate assay and/or live cell confocal imaging, 405 nm laser); type: cell-based; conditions: 10 μM to 100 μM; absence of monoamine reuptake inhibitors
Protocol: Stock solutions of the compounds shown below (UM001-UM005, 8, 9 & 12A from Example 2) were used to produce compositions with final concentrations ranging from 10 μM to 100 μM. The compositions were then contacted with dissociated e19 chick brain cells, irradiated with a 405 nm laser, and imaged using confocal microscopy.

[6] = system: dissociated e19 chick brain cells; assay: 96-microwell plate uptake screen, with and without indatraline pretreatment; type: cell-based; conditions: pretreated with indatraline, a monoamine reuptake inhibitor
Protocol: The native fluorescence of the emitters enables direct detection of their uptake in dissociated e19 chick brain cells in a convenient 96-microwell plate format. This method enables screening for activity against multiple cell types and transporters including MATs and OCTs without the use of radioactive compounds. Solutions of 11A-18D were added to cell culture media to produce an emitter concentration of 100 μM. The incubation time used was 10 min. The fluorphore solution was removed, fresh media added and the plate immediately analyzed by microwell plate reader. Given the broad range of absorption and emission wavelengths, excitation varied from 355 nm to 500 nm with emission collected at +100 nm to +150 nm.
From this initial assay, it was possible to determine whether a compound associates with the cultured cells; however, it was not clear whether a particular compound was actively transported into cells or simply interacts with the cell membrane. The monoamine transporter (MAT) reuptake inhibitor, indatraline, was utilized to provide some insight into what mechanisms of cellular uptake are at play. Dissociated brain cells were pretreated with indatraline followed by each of the twelve emitters identified from the results shown in FIG. 5.

[7] = Optical spectroscopy (UV-vis and fluorescence) of the stilbazolium emitter library; type: physicochemical
Protocol: UV-vis spectroscopy was conducted to evaluate the absorption and emission spectra for each of the thirty-two emitters.

hNET = molecular target: T1, hNET (Homo sapiens, UniProt P23975); assay: Time-lapse confocal fluorescence microscopy of transporter-expressing HEK-293 cells (hNET); type: cell-based; conditions: HEK-293 hNET, 10 μM to 100 μM, images at 10 sec intervals
T1 construct: expressed in transfected cells
T1 sequence (P23975 whole entry): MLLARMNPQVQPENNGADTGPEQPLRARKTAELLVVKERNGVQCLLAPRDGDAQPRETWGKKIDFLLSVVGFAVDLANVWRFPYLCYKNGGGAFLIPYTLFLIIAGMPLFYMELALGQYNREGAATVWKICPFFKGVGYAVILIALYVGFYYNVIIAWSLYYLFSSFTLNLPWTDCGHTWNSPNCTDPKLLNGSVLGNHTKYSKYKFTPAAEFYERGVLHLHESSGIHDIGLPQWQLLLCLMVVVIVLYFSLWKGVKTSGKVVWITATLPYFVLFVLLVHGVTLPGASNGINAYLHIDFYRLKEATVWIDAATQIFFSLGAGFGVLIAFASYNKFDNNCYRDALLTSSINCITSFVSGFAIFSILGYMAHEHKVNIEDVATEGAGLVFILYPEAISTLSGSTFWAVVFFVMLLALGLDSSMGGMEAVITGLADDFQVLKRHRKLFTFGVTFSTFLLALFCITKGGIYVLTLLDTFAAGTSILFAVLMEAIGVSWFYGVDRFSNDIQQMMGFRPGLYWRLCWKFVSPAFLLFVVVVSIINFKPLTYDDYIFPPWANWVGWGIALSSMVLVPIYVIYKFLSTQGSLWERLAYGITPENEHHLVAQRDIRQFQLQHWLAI
Excerpt: (§1) HEK-293 cells stably expressing hDAT, hNET and hSERT were provided by Prof. R. Blakely (See, e.g., J. W. Schwartz, R. D. Blakely and L. J. DeFelice, J. Biol. Chem., 2003, 278, 9768.) and cultured on 35 mm dishes with a coverslip imaging window for confocal microscopy. […] Laser intensity and gain were not altered for subsequent images captured at 10 sec intervals. Representative images are shown in FIG. 7 together with intensity profiles captured from cell bodies.

hSERT = molecular target: T2, hSERT (Homo sapiens, UniProt P31645); assay: Time-lapse confocal fluorescence microscopy of transporter-expressing HEK-293 cells (hSERT); type: cell-based; conditions: HEK-293 hSERT, 10 μM to 100 μM, images at 10 sec intervals
T2 construct: expressed in transfected cells
T2 sequence (P31645 whole entry): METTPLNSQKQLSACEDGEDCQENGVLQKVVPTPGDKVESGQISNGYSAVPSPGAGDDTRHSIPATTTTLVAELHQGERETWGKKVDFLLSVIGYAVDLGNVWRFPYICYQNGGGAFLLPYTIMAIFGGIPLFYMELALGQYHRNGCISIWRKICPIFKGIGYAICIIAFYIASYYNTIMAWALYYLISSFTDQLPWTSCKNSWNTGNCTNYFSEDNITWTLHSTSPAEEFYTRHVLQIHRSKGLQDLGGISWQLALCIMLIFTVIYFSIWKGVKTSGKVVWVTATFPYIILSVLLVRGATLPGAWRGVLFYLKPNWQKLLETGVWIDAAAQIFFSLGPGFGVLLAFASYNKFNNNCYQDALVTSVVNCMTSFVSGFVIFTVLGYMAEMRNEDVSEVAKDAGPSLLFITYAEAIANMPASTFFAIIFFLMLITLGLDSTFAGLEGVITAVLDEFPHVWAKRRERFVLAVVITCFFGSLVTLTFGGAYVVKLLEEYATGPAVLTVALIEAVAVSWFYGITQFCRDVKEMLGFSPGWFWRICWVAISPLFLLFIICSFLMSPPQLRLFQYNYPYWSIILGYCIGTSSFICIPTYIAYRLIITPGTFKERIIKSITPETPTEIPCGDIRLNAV
Excerpt: as §1

[8] = system: live brainstem and cerebellum sections from e19 chicks; assay: Confocal imaging of live brain explant sections, with and without desipramine; parameters: species or system chick; conditions: for distribution in live brain sections: 405 nm excitation, cerebellum and brainstem
Excerpt: This distribution is consistent with the behavior of these probes towards MAT-expressing HEK293 cells. The wider distribution of 13A may be due to binding to multiple transporter types, wh[…] may be limited to NET or DAT expressing catecholaminergic cells. […] Image overlays from 100 μm sagittal (FIG. 8A) and transverse (FIG. 8B) sections reveal that both probes are associated with cells of chick mesencephalon and metencephalon. The fluorophores were excited by laser at 405 nm. […] The scale bars for FIG. 8 are as follows: 8A & 8B=100 μm; C & D=10 μm; and E & F=50 μm).

hDAT = molecular target: T3, hDAT (Homo sapiens, UniProt Q01959); assay: Time-lapse confocal fluorescence microscopy of transporter-expressing HEK-293 cells (hDAT); type: cell-based; conditions: HEK-293 hDAT, 10 μM to 100 μM, images at 10 sec intervals
T3 construct: expressed in transfected cells
T3 sequence (Q01959 whole entry): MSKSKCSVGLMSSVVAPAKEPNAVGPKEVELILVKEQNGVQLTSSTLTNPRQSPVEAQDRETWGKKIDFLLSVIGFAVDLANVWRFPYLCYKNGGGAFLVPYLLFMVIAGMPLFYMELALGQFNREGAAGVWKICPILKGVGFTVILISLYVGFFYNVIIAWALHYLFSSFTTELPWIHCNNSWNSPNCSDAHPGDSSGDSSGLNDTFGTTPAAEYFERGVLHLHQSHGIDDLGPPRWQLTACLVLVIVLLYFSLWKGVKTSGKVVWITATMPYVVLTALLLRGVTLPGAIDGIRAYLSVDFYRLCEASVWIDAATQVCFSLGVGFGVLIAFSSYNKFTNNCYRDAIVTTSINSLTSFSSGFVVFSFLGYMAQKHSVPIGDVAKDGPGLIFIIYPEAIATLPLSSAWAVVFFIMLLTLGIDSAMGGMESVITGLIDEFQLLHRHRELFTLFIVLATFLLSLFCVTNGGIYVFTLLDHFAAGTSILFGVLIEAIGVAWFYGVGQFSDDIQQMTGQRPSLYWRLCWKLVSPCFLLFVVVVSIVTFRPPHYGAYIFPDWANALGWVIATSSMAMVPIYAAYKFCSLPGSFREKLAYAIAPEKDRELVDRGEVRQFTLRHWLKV
Excerpt: as §1

[9] = system: monoamine oxidases (MAOs); assay: Conversion of profluorescent HNETP to HNEP+ in cell culture; type: cell-based
Excerpt: In addition, it has been discovered that reduction of HNEP+ (UM006) results in the formation of HNETP (UM007). This provides a profluorescent option for screening pharmaceutical targets in vivo, which allows for the assessment of bioavailability of compounds in model organisms. In particular, the long wavelength absorption and emission of HNEP+ are not present in HNETP due to the loss of conjugation and the cationic pyridinium functionality. […] This reflects two distinct processes: accumulation of HNETP in the cells and the metabolism of HNETP to HNEP+ by MAOs. Inhibitors of MAO are important for several diseases including Parkinsons Disease as well as hypertensive disorders.

SMILES: NCCn1c(=O)cc(C(F)(F)F)c2ccc(O)cc21 [Compound 1]
cell binding / illumination ([1]; one minute exposure, 405 nm excitation): bound to and illuminated most healthy cells | photostability during imaging ([1]; without antifade reagents): sufficiently stable to capture multiple images over 10 mins | subcellular localization of probe ([1]; z-stacks, one minute exposure): localized internally after only one minute of exposure; also recorded: localized to the interior of both astroglia and neurons | effect of Clomipramine pretreatment on uptake [2]: significantly reduced | emission response (cellular uptake) [2]: high emission response

SMILES: CN(C)CCn1c(=O)cc(C(F)(F)F)c2ccc(O)cc21 [Compound 2]
emission response (cellular uptake) [2]: did not differ significantly from the controls

small additional emission peak [3]: 380 nm
SMILES: O=c1cc(C(F)(F)F)c2ccc(O)cc2n1CCO [Compound 3]
emission response (cellular uptake) [2]: did not differ significantly from the controls

small additional emission peak [3]: 380 nm | solubility [4]: < 50 µM
SMILES: O=c1cc(C(F)(F)F)c2ccc(O)cc2n1CCCc1ccccc1 [Compound 4]
effect of Clomipramine pretreatment on uptake [2]: significantly reduced | emission response (cellular uptake) [2]: to a lesser extent

λmax,abs ([3]; 5HT comparison): 277 nm
SMILES: NCCc1c[nH]c2ccc(O)cc12 [Compound 5HT, 5-hydroxytryptamine, reference compound]

SMILES: CN(C)CCn1c(=O)cc(C(F)(F)F)c2ccc(O)cc21 [Compound 8]
uptake in dissociated chick brain cells [5]: little or no uptake

SMILES: CN(C)CCN1C(=O)c2cccc3c(N)ccc(c23)C1=O [Compound 9]
uptake in dissociated chick brain cells [5]: little or no uptake

absorption maxima ([7]; 10 μM solutions): 358 nm | emission maxima ([7]; 10 μM solutions): 475 nm and 490 nm
SMILES: COc1ccc(/C=C/c2cc[n+](C)cc2)cc1 [Compound 12A]
uptake in dissociated chick brain cells [5]: accumulated | emission response after indatraline pretreatment [6]: maintained high responses even after indatraline pretreatment

SMILES: C[n+]1ccc(/C=C/c2ccc3ccccc3c2)cc1.[I-] [Compound 13A, (E)-1-Methyl-4-[2-(2-naphthalenyl)ethenyl]-pyridinium iodide]
accumulation / transport in cells expressing NET (hNET): did not accumulate; also recorded: does not appear to be transported | emission response after indatraline pretreatment [6]: affected by indatraline pretreatment | overall brightness (ε·Φem) ([7]; versus acridine orange, Hoescht 33258 and DAPI): compares favorably | accumulation / transport in cells expressing SERT (hSERT): did not accumulate; also recorded: does not appear to be transported | distribution in live brain sections [8]: widely distributed in both the cerebellum and pons | accumulation / transport in cells expressing DAT (hDAT): did not accumulate; also recorded: does not appear to be transported

SMILES: C[n+]1ccc(/C=C/c2ccc3cc(O)ccc3c2)cc1 [Compound 14A, (E)-4-[2-(6-hydroxy-2-naphthalenyl)ethenyl]-1-methyl-pyridinium iodide]
accumulation / transport in cells expressing NET (hNET): preferentially accumulates in cells expressing NET; also recorded: rapidly accumulated | accumulation / transport in cells expressing SERT (hSERT): does not differ substantially from the control untransfected HEK cells | distribution in live brain sections [8]: appears in distinct cell groupings along the cerebellar gyri and around the midline of the brainstem | effect of desipramine pretreatment on accumulation ([8]; pretreatment with desipramine, a norepinephrine reuptake inhibitor): limited the accumulation

SMILES: CN1CC=C(/C=C/c2ccc3cc(O)ccc3c2)CC1 [HNETP]
metabolic conversion by MAOs [9]: convert HNETP to HNEP+ in cell culture
